Results reported in paper PMC5843810, “18th European Symposium on Radiopharmacy and Radiopharmaceuticals” (EJNMMI Radiopharmacy and Chemistry, 2016).
Read-outs that look alike come from different tables or passages of the source. Where a SMILES comes first, the peptide text is derived from it. Bridges are numbered along the chain shown (N, C = ends). [ ]: non-standard residue; d: D form. Ahx = NCCCCCC(=O)O; βAla = NCCC(=O)O

Key:
[1] = healthy Balb/c mice n=5, i.v., 1h p.i.
Procedure: The biodistribution of such prepared 68Ga-PSMA-11 was investigated in healthy Balb/c mice (n=5) after intravenous injection of 0.1mL (38 MBq/mL) (at 15, 30, 60 and 120min).

MC1R = molecular target: T1, MC1R (Mus musculus, UniProt Q01727); test: MC1R binding affinity in B16/F10 melanoma cells; conditions: unlabelled peptides
T1 construct: endogenous in cells; host or cells: B16/F10
T1 sequence (Q01727 whole entry): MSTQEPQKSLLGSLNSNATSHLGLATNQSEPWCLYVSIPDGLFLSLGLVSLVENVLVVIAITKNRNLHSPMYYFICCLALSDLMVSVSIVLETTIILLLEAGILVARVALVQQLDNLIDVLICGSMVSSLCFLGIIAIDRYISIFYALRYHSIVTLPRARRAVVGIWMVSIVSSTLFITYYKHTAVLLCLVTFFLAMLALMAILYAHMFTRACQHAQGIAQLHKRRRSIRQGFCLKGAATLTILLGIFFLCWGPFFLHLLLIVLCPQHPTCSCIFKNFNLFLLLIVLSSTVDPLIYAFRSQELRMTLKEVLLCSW

GRP receptors = GRP receptors (Homo sapiens, UniProt P30550); test: GRP receptor affinity of PD-410; type: binding
Sequence of GRP receptors (P30550 whole entry): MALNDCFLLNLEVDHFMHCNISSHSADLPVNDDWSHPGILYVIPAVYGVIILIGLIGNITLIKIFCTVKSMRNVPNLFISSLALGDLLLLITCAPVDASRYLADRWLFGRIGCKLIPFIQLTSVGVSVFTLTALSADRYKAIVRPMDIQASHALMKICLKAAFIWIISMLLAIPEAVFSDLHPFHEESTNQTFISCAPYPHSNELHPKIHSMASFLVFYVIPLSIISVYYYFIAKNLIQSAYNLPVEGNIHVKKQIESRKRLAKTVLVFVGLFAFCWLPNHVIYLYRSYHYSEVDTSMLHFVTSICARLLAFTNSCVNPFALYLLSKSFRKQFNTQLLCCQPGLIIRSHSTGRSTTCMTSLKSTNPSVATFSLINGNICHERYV
Excerpt: Introduction: The Gastrin Releasing Peptide (GRP) receptor has high expression on prostate cancer cells. Consequently, bombesin, a 14-amino acid peptide that binds with high affinity to GRP receptors, has been widely studied for the development of radiopeptides for application in prostate cancer imaging. To overcome some limitations of radiolabelled peptides, we developed a small molecule non-peptidic radiotracer targeting GRP receptors. […] The aim of the present study is to develop a non-peptidic fluorine-18 PET radioligand with antagonist properties, for visualization of GRP receptors.

[2] = system: human breast cancer cell lines; design: method as in not given; conditions: ref not given; cited from earlier work
Excerpt: Introduction: Substituted benzotiazoles (BT) are a class of compounds with high affinity and selectivity to aryl hydrocarbon receptor (AhR), a receptor often expressed in breast cancer tissue.

HDAC6 [3] = molecular target: T2, HDAC6 (Homo sapiens, UniProt Q9UBN7); test: Autoradiography on PC3/LNCaP prostate tumor slices; type: binding; conditions: 100 μM
T2 construct: wild-type Wistar rat brain tissue and PC3/LNCaP prostate tumor slices; from tissue; host or cells: PC3 and LNCaP prostate tumour slices (xenografts)
T2 sequence (Q9UBN7 1-1215): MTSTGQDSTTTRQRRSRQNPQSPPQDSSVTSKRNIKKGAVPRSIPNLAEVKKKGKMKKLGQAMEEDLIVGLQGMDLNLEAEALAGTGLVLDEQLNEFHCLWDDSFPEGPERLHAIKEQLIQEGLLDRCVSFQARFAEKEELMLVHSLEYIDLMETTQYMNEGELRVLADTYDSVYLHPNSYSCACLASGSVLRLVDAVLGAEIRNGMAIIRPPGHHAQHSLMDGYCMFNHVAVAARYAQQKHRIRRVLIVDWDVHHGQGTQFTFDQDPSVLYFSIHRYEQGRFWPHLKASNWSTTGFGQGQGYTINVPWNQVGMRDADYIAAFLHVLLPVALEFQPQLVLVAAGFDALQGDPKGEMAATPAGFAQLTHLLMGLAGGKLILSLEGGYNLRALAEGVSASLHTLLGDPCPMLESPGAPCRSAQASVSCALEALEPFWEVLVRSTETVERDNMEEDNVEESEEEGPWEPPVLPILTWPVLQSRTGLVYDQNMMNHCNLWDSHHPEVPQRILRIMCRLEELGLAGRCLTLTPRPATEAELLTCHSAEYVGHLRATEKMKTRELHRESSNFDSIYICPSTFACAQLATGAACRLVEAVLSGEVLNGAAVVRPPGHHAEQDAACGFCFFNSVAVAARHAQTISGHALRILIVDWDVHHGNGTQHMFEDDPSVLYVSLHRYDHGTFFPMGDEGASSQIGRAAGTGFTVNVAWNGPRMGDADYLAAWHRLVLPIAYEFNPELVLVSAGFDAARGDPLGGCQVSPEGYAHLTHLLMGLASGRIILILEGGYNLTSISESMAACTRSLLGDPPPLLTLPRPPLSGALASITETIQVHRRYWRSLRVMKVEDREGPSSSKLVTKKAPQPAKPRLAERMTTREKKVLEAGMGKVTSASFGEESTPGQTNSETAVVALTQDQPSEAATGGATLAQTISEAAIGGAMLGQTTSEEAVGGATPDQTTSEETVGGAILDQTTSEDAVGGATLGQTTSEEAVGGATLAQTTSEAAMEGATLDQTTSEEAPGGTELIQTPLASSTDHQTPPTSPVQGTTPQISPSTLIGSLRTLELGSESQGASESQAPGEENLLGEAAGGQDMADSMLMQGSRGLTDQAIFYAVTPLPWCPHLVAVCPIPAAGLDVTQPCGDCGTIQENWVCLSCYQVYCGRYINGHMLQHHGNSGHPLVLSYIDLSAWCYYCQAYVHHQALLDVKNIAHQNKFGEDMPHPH
Procedure: (§1) The biodistribution was studied in NMRI-mice at 2, 10, 30 and 60 min (n = 3/time point) post injection (p.i.). Organs and tissues were harvested and radioactivity was counted in a gamma-counter. […] Slices were incubated with 18.5 MBq/400μL (brain) or 18.5 MBq/250 μL (tumor) of tracer with/without 100 μM of cold authentic reference compound (KB631) or non-structural related pan-HDAC inhibitor Suberoylanilide hydroxamic acid (SAHA).

HDAC6 [4] = molecular target: T3, HDAC6 (Rattus norvegicus, UniProt A0A8I6GM68); test: Autoradiography on Wistar rat brain tissue; type: binding; conditions: rat brain slices, 100 μM
T3 construct: wild-type Wistar rat brain tissue; from tissue; host or cells: wild-type Wistar rat brain slices
T3 sequence (A0A8I6GM68 whole entry): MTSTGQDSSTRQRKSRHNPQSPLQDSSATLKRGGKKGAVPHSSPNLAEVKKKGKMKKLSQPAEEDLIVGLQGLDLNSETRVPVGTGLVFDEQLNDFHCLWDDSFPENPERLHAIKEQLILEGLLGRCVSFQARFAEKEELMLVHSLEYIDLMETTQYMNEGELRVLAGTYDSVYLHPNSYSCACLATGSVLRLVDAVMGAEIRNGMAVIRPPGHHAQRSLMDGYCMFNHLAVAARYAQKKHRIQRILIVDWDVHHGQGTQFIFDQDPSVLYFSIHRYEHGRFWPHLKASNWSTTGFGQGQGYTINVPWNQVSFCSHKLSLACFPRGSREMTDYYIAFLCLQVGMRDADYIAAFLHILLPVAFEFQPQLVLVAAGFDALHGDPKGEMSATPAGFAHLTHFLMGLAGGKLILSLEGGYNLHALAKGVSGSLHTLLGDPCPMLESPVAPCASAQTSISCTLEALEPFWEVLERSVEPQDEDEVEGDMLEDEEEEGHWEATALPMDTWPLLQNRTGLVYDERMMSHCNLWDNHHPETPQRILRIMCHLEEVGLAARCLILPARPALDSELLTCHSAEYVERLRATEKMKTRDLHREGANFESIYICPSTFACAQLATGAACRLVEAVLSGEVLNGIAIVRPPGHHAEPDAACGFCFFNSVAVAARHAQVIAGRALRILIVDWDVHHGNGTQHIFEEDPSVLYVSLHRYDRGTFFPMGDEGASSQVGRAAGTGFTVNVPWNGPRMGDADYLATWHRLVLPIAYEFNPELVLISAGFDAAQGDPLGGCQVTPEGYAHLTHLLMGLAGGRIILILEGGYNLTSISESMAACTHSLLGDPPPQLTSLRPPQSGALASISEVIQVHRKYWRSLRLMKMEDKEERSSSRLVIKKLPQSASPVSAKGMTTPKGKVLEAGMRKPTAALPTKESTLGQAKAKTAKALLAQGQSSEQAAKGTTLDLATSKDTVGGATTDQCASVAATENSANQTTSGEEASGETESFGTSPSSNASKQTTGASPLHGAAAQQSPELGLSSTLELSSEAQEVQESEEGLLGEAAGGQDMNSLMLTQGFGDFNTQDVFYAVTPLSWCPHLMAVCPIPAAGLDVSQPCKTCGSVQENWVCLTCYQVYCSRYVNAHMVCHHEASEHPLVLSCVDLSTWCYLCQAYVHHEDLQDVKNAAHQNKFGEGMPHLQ
Procedure: as §1

[5] = PET/CT imaging in nude mice bearing U87MG xenograft tumor; type: in vivo; conditions: mouse, 90 min post injection
Procedure: Materials and methods: The PET imaging properties of [^68Ga]FSC(succ-RGD)3 were studied in nude mice bearing M21 human melanoma xenografts and human glioblastoma U87MG xenograft tumor. A parallel PET imaging of ^68GaNODAGA-RGD in same mouse bearing U87MG xenograft tumor was performed as a comparison.

[6] = Extended single dose toxicity study in Sprague-Dawley rats; type: in vivo
[7] = Procedure: Methods: Labelling was carried out in a remote controlled synthesis unit under clean room conditions. Quality control included TLC, HPLC, GC, pH control, Ge-breakthrough, half-life, endotoxin content, and control of sterility. Storage stability after 4 h was studied and dose estimations based on animal data were carried out using OLINDA. Sprague-Dawley rats were used for an extended single dose toxicity study. The phase I clinical study included 9 patients with hepatocellular carcinoma (HCC). Static scans at 5, 30, and 60 min p.i. including 5 bed positions each were performed using the Discovery 690 PET/CT. Blood was sampled 30 and 60 min p.i. and urine 60 min p.i. and used for stability studies via HPLC.
U87MG tumor = system: U87MG tumor
Procedure: Materials and Methods: The radiolabelling was performed using an automated system with inline quality control. Fraction of 68GaCl3 eluate from an organic matrix based 68Ge/68Ga generator, 400-700 MBq in 2 mL, was used to label NOTA/NODAGA/DOTA-derivatised cRGD peptides. Elution, labeling and purification procedures were performed in 20-25 min. The biodistribution was tested in tumor bearing animal models (U87MG, Walker 256, B21 and AR42J). The affinity of cyclo-RGD peptides to tumor cell-surface receptors was determined by real-time quantification using Ligand Tracer.

AR42J and U87MG = test: Real-time binding and retention on tumor cells (Ligand Tracer); type: cell-based
Procedure: Materials and Methods: The radiolabelling was performed using an automated system with inline quality control. Fraction of 68GaCl3 eluate from an organic matrix based 68Ge/68Ga generator, 400-700 MBq in 2 mL, was used to label NOTA/NODAGA/DOTA-derivatised cRGD peptides. Elution, labeling and purification procedures were performed in 20-25 min. […] The affinity of cyclo-RGD peptides to tumor cell-surface receptors was determined by real-time quantification using Ligand Tracer.

For `O=C(O)CCc1ccc(O)c(CN(CCN(CC(=O)O)Cc2cc(CCC(=O)NCCCCCC(=O)NCCCC[C@H](NC(=O)N[C@@H](CCC(=O)O)C(=O)O)C(=O)O)ccc2O)CC(=O)O)c1` [68Ga-PSMA-11, Glu-CO-Lys(Ahx)-HBED-CC, metal not drawn], the urine elimination [1] was > 70%.
`CC(C)[C@H](NC(=O)[C@@H]1CCCN1C(=O)[C@H](CCCNC(=N)N)NC(=O)[C@@H]1CCC(=O)NCCCC[C@H](NC(=O)CCNC(=O)CCCCCNC(=O)[C@@H](N)CS)C(=O)N[C@@H](CCC(=O)O)C(=O)N[C@@H](Cc2c[nH]cn2)C(=O)N[C@H](Cc2ccccc2)C(=O)N[C@@H](CCCNC(=N)N)C(=O)N[C@@H](Cc2c[nH]c3ccccc23)C(=O)N1)C(N)=O` [NAP_NS2, H-Cys-Ahx-βAla^3-c[Lys^4-Glu-His-D-Phe-Arg-Trp-Glu^10]-Arg^11-Pro-Val-NH2] (H-C[Ahx][βAla]KEH[dF]RWERPV-NH2; lactam 4-10) gave a Ki (MC1R) of 7.1 ± 2.4 nM.
Compound `C[C@@](Cc1c[nH]c2ccccc12)(NC(=O)Nc1ccc([N+](=O)[O-])cc1)C(=O)NCC1(c2ccc(OCCF)cn2)CCCCC1` [PD-410, (S)-3-(1H-indol-3-yl)-N-[1-[5-(2-fluoroethoxy)pyridin-2-yl]cyclohexylmethyl]-2-methyl-2-[3-(4-nitrophenyl)ureido]propionamide] has a Ki (GRP receptors) of 38 ± 2 nM.
For `COc1ccc(-c2nc3cc(F)ccc3s2)cc1OC` [PMX 610, 2-(3,4-dimethoxyphenyl)-5-fluorobenzothiazole], the GI50 [2] is listed as < 0.1 nM.
For `O=C(CCCCCCC(=O)Nc1ccccc1)NO` [SAHA, Suberoylanilide hydroxamic acid], the “displacement of [11C]KB631 binding, LNCaP” value (HDAC6 [3]; LNCaP tumor slices) was 59%, the “displacement of [11C]KB631 binding, PC3” value (HDAC6 [3]; PC3 tumor slices) was 39% and the “displacement of [11C]KB631 binding, brain” value (HDAC6 [4]) was 73%.
With `N=C(N)NCCC[C@@H]1NC(=O)[C@H](CCCCNC(=O)CCC(C(=O)O)N2CCN(CC(=O)O)CCN(CC(=O)O)CC2)NC(=O)[C@@H](Cc2ccccc2)NC(=O)[C@H](CC(=O)O)NC(=O)CNC1=O` (stereo partly drawn) [[68Ga]NODAGA-RGD, metal not drawn] the tissue to tissue ratio at […] ([5]; tumour and kidneys, read-out: tumor/kidneys ratio) was 1.6, the tissue to tissue ratio at […] ([5]; tumour and muscle, read-out: tumor/muscle ratio) was 5 and the “tolerability in single dose toxicity study” value [6] was “well tolerated in animals”. For the same compound, the “side effects in clinical study” value ([7]; 9 patients with HCC) was “no severe side effects were observed”, the calculated effective dose ([7]; human, in vivo) was 21.5±5.4 μSv/MBq and the metabolic stability ([7]; patient blood (30, 60 min p.i.) and urine (60 min p.i.), HPLC) was “High metabolic stability”.
With “DOTA-E-[c(RGDfK)2] (head to tail) [68Ga-DOTA-E-[c(RGDfK)2], 68Ga-labelled dimeric cyclo-RGD peptide]” the tumor uptake (U87MG tumor) was “Up to 5.3 % ID/g” and the “retention, from activity in the cells” value (AR42J and U87MG) was “up to 58%”.
